The target in experiment [1] is T1, human CYP3A4 (Homo sapiens, UniProt P08684).
T1 construct: purchased Daiichikagakuyakuhin
Put plainly: Inhibitory activity against human CYP3A4 (7-benzyloxyquinoline substrate, expression system microsome). It counts as in vitro ADME. The following applies: substrate 7-BQ 40 μM, expression system microsome 0.25 mg/mL, 30 minutes incubation, fluorescence. On the procedure: Inhibitory activity against human CYP3A4 of the compound of the present invention can be evaluated by an improved method described in Drug Metabolism and Disposition, Vol. 28(12), 1440-1448 (2000).
For example, a reaction solution consisted of potassium phosphate buffer (pH 7.4) (final concentration: 200 mM), magnesium chloride hexahydrate (final concentration: 5 mM), substrate (7-benzyloxyquinoline (7-BQ), final concentration: 40 μM), and expression system microsome (Daiichikagakuyakuhin, final concentration: 0.25 mg/mL) was prepared. 100 μL of the reaction solution is dispensed in 96 well plate, and added by 50 μL of an aqueous solution containing test a compound and 0.8% acetonitrile, to carry out 10 minutes of preincubation at 37° C. 50 μL of a reduced nicotinamide adenine dinucleotide phosphate (NADPH, 4 mM) is added to initiate a reaction. The fluorescence intensity of each well was measured at the time when NADPH was added and after incubated for 30 minutes. Excitation wavelength at 409 nm and emission wavelength at 530 nm of quinolinol, which is metabolite of substrate, was measured. Inhibition ratio (%) of the test compound was calculated by the following calculation formula to obtain IC50 value. Inhibition ratio(%)=[1−{(measured value when a test compound is added)−(blank value)/(control value−blank value)}]×100

Experiment [2] has as its target human CCR5 (Homo sapiens, UniProt P51681). Put plainly: CCR5 binding test ([125I]MIP-1β binding inhibition). The settings on record: inhibition of [125I]MIP-1β (0.1 nM) binding to membrane fraction of human CCR5 stably over-expressing CHO-K1 cell, 25° C., 120 minutes. On the procedure:
A membrane fraction of the human CCR5 stably over-expressing CHO-K1 cell was suspended in assay buffer (50 mM HEPES/0.5% BSA/1 mM calcium chloride/5 mM magnesium chloride, pH 7.4) and dispensed in a 48 well polypropylene plate with U-shaped bottom in the amount corresponding to 1 μg of protein/well. Then, an unlabelled ligand was added so as to obtain a concentration of 0.1 μM in a non-specific binding group, while a compound was added so as to obtain a final concentration of 0.003 to 0.3 μM in a compound group. Subsequently, [^125I]MIP-1β was added so as to obtain a final concentration of 0.1 nM and a mixture thereof was incubated at 25° C. for 120 minutes. The membrane fraction was trapped with a filter, washed, and then radioactivity of [^125I]MIP-1β was measured by a γ counter.
Inhibition ratio (%) of the test compound was calculated by the following calculation formula. Inhibition ratio=[(Ec−Ea)/Ec]×100 • Ec: Radioactivity of when DMSO control solution is added−radioactivity of non-specific binding group • Ea: Radioactivity of when test compound is added−radioactivity of non-specific binding group

In patent US8003642B2, “Nitrogenated heterocyclic derivative, and pharmaceutical agent comprising the derivative as active ingredient” (Ono Pharmaceutical Co., Ltd., priority 2006, dated 2011) one finds IC50 data, which are given here for four molecules.

The term IC50 denotes the concentration at which inhibition is half-maximal. High values mean a need for much substance, low ones inhibition by little substance.

T1 sequence (P08684 whole entry): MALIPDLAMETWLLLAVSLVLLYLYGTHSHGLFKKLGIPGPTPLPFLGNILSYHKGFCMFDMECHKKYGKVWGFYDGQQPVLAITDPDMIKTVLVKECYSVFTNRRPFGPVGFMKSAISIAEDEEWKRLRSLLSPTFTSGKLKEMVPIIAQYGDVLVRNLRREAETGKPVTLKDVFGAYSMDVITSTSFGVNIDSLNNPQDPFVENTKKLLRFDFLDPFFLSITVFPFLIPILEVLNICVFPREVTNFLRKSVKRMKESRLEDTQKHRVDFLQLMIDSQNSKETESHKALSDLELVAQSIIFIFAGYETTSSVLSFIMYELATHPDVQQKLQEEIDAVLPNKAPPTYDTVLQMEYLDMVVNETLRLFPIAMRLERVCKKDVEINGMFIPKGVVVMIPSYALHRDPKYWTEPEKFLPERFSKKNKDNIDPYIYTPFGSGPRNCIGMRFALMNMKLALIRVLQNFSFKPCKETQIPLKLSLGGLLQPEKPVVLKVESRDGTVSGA
human CCR5, sequence (P51681 whole entry): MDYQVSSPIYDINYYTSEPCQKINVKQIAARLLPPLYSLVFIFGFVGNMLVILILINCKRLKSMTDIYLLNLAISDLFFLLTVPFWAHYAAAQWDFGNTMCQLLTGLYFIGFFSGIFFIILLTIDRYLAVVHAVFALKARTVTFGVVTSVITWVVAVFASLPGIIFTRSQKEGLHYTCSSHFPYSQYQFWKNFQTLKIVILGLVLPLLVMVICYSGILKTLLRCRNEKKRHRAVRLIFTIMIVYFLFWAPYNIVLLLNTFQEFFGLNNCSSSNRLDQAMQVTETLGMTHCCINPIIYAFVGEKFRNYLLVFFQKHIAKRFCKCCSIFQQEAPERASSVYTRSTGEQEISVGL

`CCCCN(C(=O)Nc1cc(C(N)=O)c(F)cc1F)C1CCN(Cc2ccc(Oc3ccc(C(=O)N4CCN(C)CC4)cc3)nc2C)CC1` [Example 16(63), 5-[(butyl {1-[(2-methyl-6-{4-[(4-methyl-1-piperazinyl)carbonyl]phenoxy}-3-pyridinyl)methyl]-4-piperidinyl}carbamoyl)amino]-2,4-difluorobenzamide] registered an IC50 in experiment [1] not below 30 µM. On to `CCCCN(C(=O)Nc1cc(C(N)=O)c(F)cc1F)C1CCN(Cc2ccc(Oc3ccc(C(=O)N4CCN(C(C)=O)CC4)cc3)nc2C)CC1` [Example 16(60), 5-{[{1-[(6-{4-[(4-acetyl-1-piperazinyl)carbonyl]phenoxy}-2-methyl-3-pyridinyl)methyl]-4-piperidinyl}(butyl)carbamoyl]amino}-2,4-difluorobenzamide], for which the concentration for half-maximal inhibition (IC50) in experiment [1] is not below 30 µM.

Turning to `CCCCN(C(=O)Nc1cc(C(N)=O)c(F)cc1F)C1CCN(Cc2ccc(Oc3ccc(C(=O)N(C)C)cc3)nc2C)CC1` [Example 16(61), 5-({butyl[1-({6-[4-(dimethylcarbamoyl)phenoxy]-2-methyl-3-pyridinyl}methyl)-4-piperidinyl]carbamoyl}amino)-2,4-difluorobenzamide], the IC50 in experiment [1] is not below 30 µM; in experiment [2], not above 0.1 µM. `CCCCN(C(=O)Nc1cc(C(N)=O)c(F)cc1F)C1CCN(Cc2ccc(Oc3ccc(C(=O)NCC)cc3)nc2C)CC1` [Example 16(62), 5-({butyl[1-({6-[4-(ethylcarbamoyl)phenoxy]-2-methyl-3-pyridinyl}methyl)-4-piperidinyl]carbamoyl}amino)-2,4-difluorobenzamide] registered a half-inhibitory concentration (IC50) in experiment [2] not above 0.1 µM.
